Source: ChEMBL document CHEMBL3885861, “Open TG-GATES”

Species: Rattus norvegicus
Assay: Open TG-GATES - Regimen: Daily Repeat
Format: toxicity, organism-based, Sprague-Dawley
Parameters: regimen Daily Repeat, gender Male, age 6 weeks
Conditions: in vivo, po, route gavage; for Eos / Fbg / Hb / Ht / Lym / MCHC / MCV / Mono / Neu / PT / Plat / RBC / Ret / WBC / Bas: tissue Blood; for ALP / AST / BUN / CRE / Ca / Cl / DBIL / GLC / IP / K / LDH / Na / PL / RALB / TBIL / TC / TG / TP / gamma-GTP / ALT: tissue Plasma
[1] = 300 mg/kg, 72 h, dose level Middle, time 3 day
[2] = 300 mg/kg, […], dose level Middle, time 7 day
[3] = 300 mg/kg, […], dose level Middle, time 14 day
[4] = 300 mg/kg, […], dose level Middle, time 28 day
[5] = 1000 mg/kg, 72 h, dose level High, time 3 day
[6] = 1000 mg/kg, […], dose level High, time 7 day
[7] = 1000 mg/kg, […], dose level High, time 14 day
[8] = 1000 mg/kg, […], dose level High, time 28 day

Structure (SMILES): O=C(O)c1cccnc1 [NIACIN]
- Eos [1]: 1%
- Fbg [1]: 314.2 mg/dL
- Hb [1]: 13.3 g/dL
- Ht [1]: 40.2%
- Lym [1]: 75.2%
- MCHC [1]: 33%
- MCV [1]: 63.4 fL
- Mono [1]: 3.6%
- Neu [1]: 19%
- PT [1]: 16 s
- Plat [1]: 132.1 x10_4/uL
- RBC [1]: 635.6 x10_4/ul
- Ret [1]: 7.2%
- WBC [1]: 106.7 x10_2/uL
- ALP [1]: 1606.8 IU/L
- AST [1]: 74.6 IU/L
- BUN [1]: 16.4 mg/dL
- CRE [1]: 0.2 mg/dL
- Ca [1]: 10.8 mg/dL
- Cl [1]: 104 meq/L
- DBIL [1]: 0 mg/dL
- GLC [1]: 191.6 mg/dL
- IP [1]: 8.2 mg/dL
- K [1]: 4.1 meq/L
- LDH [1]: 165.8 IU/L
- Na [1]: 139.6 meq/L
- PL [1]: 152.8 mg/dL
- RALB [1]: 3 g/dL
- TBIL [1]: 0 mg/dL
- TC [1]: 73.2 mg/dL
- TG [1]: 136.2 mg/dL
- TP [1]: 5.6 g/dL
- gamma-GTP [1]: 1.2 IU/L
- TERMINAL_BW [2]: 273.2 g
- TERMINAL_BW [3]: 321.5 g
- TERMINAL_BW [4]: 396.3 g
- Bas [2]: 0%
- Eos [2]: 1%
- Fbg [2]: 325.8 mg/dL
- Hb [2]: 13.8 g/dL
- Ht [2]: 41.4%
- Lym [2]: 75%
- MCHC [2]: 33.4%
- MCV [2]: 63.5 fL
- Mono [2]: 3.4%
- Neu [2]: 19.2%
- PT [2]: 15.6 s
- Plat [2]: 112.8 x10_4/uL
- RBC [2]: 652.2 x10_4/ul
- Ret [2]: 6%
- WBC [2]: 104.1 x10_2/uL
- Bas [3]: 0%
- Eos [3]: 0.6%
- Fbg [3]: 325.2 mg/dL
- Ht [3]: 42.2%
- Lym [3]: 72.6%
- MCHC [3]: 33.7%
- MCV [3]: 59.8 fL
- Mono [3]: 3.4%
- Neu [3]: 21.8%
- PT [3]: 15.5 s
- Plat [3]: 109.4 x10_4/uL
- RBC [3]: 705.8 x10_4/ul
- Ret [3]: 4.7%
- WBC [3]: 119.8 x10_2/uL
- Bas [4]: 0%
- Eos [4]: 1.2%
- Fbg [4]: 336.6 mg/dL
- Hb [4]: 15 g/dL
- Ht [4]: 42.6%
- Lym [4]: 74.8%
- MCHC [4]: 35.3%
- MCV [4]: 56 fL
- Mono [4]: 2.8%
- PT [4]: 16.1 s
- Plat [4]: 100.4 x10_4/uL
- RBC [4]: 761.2 x10_4/ul
- Ret [4]: 2.6%
- WBC [4]: 105.7 x10_2/uL
- ALP [2]: 1661 IU/L
- ALT [2]: 47.8 IU/L
- AST [2]: 76 IU/L
- BUN [2]: 17.6 mg/dL
- CRE [2]: 0.1 mg/dL
- Ca [2]: 10.7 mg/dL
- Cl [2]: 105 meq/L
- DBIL [2]: 0 mg/dL
- GLC [2]: 189 mg/dL
- IP [2]: 7.4 mg/dL
- K [2]: 4.3 meq/L
- LDH [2]: 138.4 IU/L
- Na [2]: 139.8 meq/L
- PL [2]: 161.8 mg/dL
- RALB [2]: 2.9 g/dL
- TBIL [2]: 0 mg/dL
- TC [2]: 79.6 mg/dL
- TG [2]: 135.8 mg/dL
- TP [2]: 5.5 g/dL
- gamma-GTP [2]: 1.4 IU/L
- ALP [3]: 1495.2 IU/L
- ALT [3]: 39.6 IU/L
- AST [3]: 68.8 IU/L
- CRE [3]: 0.2 mg/dL
- Ca [3]: 10.7 mg/dL
- Cl [3]: 104.4 meq/L
- DBIL [3]: 0 mg/dL
- GLC [3]: 201 mg/dL
- IP [3]: 6.8 mg/dL
- K [3]: 3.9 meq/L
- LDH [3]: 166.4 IU/L
- Na [3]: 137.6 meq/L
- PL [3]: 162.6 mg/dL
- RALB [3]: 3.1 g/dL
- TBIL [3]: 0.006 mg/dL
- TC [3]: 77.6 mg/dL
- TG [3]: 156 mg/dL
- TP [3]: 5.8 g/dL
- gamma-GTP [3]: 1.8 IU/L
- ALP [4]: 1059.8 IU/L
- ALT [4]: 41.4 IU/L
- AST [4]: 71.2 IU/L
- BUN [4]: 16 mg/dL
- CRE [4]: 0.2 mg/dL
- Ca [4]: 10.4 mg/dL
- Cl [4]: 107 meq/L
- DBIL [4]: 0 mg/dL
- GLC [4]: 193.6 mg/dL
- IP [4]: 6.3 mg/dL
- K [4]: 4.4 meq/L
- LDH [4]: 149.2 IU/L
- Na [4]: 143 meq/L
- PL [4]: 140.4 mg/dL
- RALB [4]: 3 g/dL
- TBIL [4]: 0.008 mg/dL
- TC [4]: 69.4 mg/dL
- TG [4]: 126.6 mg/dL
- TP [4]: 6.1 g/dL
- gamma-GTP [4]: 2.8 IU/L
- TERMINAL_BW [5]: 239.5 g
- Bas [5]: 0%
- Eos [5]: 0.8%
- Fbg [5]: 319.4 mg/dL
- Hb [5]: 13.5 g/dL
- Ht [5]: 40.1%
- Lym [5]: 73.6%
- MCHC [5]: 33.5%
- MCV [5]: 62.3 fL
- Mono [5]: 3.8%
- Plat [5]: 119.3 x10_4/uL
- RBC [5]: 645 x10_4/ul
- Ret [5]: 5.7%
- WBC [5]: 116 x10_2/uL
- ALP [5]: 1534.6 IU/L
- ALT [5]: 48.8 IU/L
- AST [5]: 77.8 IU/L
- BUN [5]: 17.2 mg/dL
- CRE [5]: 0.2 mg/dL
- Ca [5]: 10.9 mg/dL
- Cl [5]: 104.2 meq/L
- DBIL [5]: 0 mg/dL
- GLC [5]: 187.6 mg/dL
- IP [5]: 8.5 mg/dL
- K [5]: 4.1 meq/L
- LDH [5]: 176.6 IU/L
- Na [5]: 139.4 meq/L
- PL [5]: 148.8 mg/dL
- RALB [5]: 3.1 g/dL
- TBIL [5]: 0 mg/dL
- TC [5]: 73.4 mg/dL
- TG [5]: 97.6 mg/dL
- TP [5]: 5.6 g/dL
- gamma-GTP [5]: 1.2 IU/L
- TERMINAL_BW [6]: 270 g
- TERMINAL_BW [7]: 315.4 g
- TERMINAL_BW [8]: 425.7 g
- Bas [6]: 0%
- Eos [6]: 0.8%
- Fbg [6]: 325.4 mg/dL
- Hb [6]: 13.6 g/dL
- Ht [6]: 40.6%
- Lym [6]: 77.2%
- MCHC [6]: 33.5%
- MCV [6]: 61.6 fL
- Mono [6]: 3.4%
- Neu [6]: 16.8%
- PT [6]: 16 s
- Plat [6]: 107.2 x10_4/uL
- RBC [6]: 659.8 x10_4/ul
- Ret [6]: 6.7%
- WBC [6]: 127.7 x10_2/uL
- Bas [7]: 0%
- Eos [7]: 0.6%
- Fbg [7]: 295.4 mg/dL
- Hb [7]: 13.9 g/dL
- Ht [7]: 41.5%
- Lym [7]: 75.2%
- MCHC [7]: 33.6%
- Mono [7]: 2.4%
- Neu [7]: 19.8%
- PT [7]: 15.2 s
- Plat [7]: 114.8 x10_4/uL
- RBC [7]: 684.2 x10_4/ul
- Ret [7]: 4.6%
- WBC [7]: 131.3 x10_2/uL
- Bas [8]: 0%
- Eos [8]: 1%
- Fbg [8]: 310.8 mg/dL
- Hb [8]: 14.8 g/dL
- Ht [8]: 42.1%
- Lym [8]: 75.6%
- MCHC [8]: 35.2%
- MCV [8]: 56.4 fL
- Mono [8]: 3.6%
- Neu [8]: 18.2%
- PT [8]: 15.8 s
- Plat [8]: 88.1 x10_4/uL
- RBC [8]: 747.2 x10_4/ul
- Ret [8]: 2.7%
- WBC [8]: 127.6 x10_2/uL
- ALP [6]: 1693.6 IU/L
- ALT [6]: 45.6 IU/L
- AST [6]: 77.6 IU/L
- BUN [6]: 15.8 mg/dL
- CRE [6]: 0.2 mg/dL
- Ca [6]: 10.6 mg/dL
- Cl [6]: 104.8 meq/L
- DBIL [6]: 0 mg/dL
- GLC [6]: 196.6 mg/dL
- IP [6]: 7.5 mg/dL
- K [6]: 4.5 meq/L
- LDH [6]: 137.2 IU/L
- Na [6]: 139 meq/L
- PL [6]: 142.4 mg/dL
- RALB [6]: 3 g/dL
- TBIL [6]: 0.004 mg/dL
- TC [6]: 69.2 mg/dL
- TG [6]: 107 mg/dL
- TP [6]: 5.6 g/dL
- gamma-GTP [6]: 1.8 IU/L
- ALP [7]: 1458 IU/L
- ALT [7]: 44.8 IU/L
- AST [7]: 86.8 IU/L
- BUN [7]: 17.2 mg/dL
- CRE [7]: 0.2 mg/dL
- Ca [7]: 10.5 mg/dL
- Cl [7]: 105.2 meq/L
- DBIL [7]: 0 mg/dL
- GLC [7]: 195.6 mg/dL
- IP [7]: 7 mg/dL
- K [7]: 4.1 meq/L
- LDH [7]: 140.8 IU/L
- Na [7]: 138.8 meq/L
- PL [7]: 150.8 mg/dL
- RALB [7]: 3.1 g/dL
- TBIL [7]: 0.012 mg/dL
- TC [7]: 67.2 mg/dL
- TG [7]: 163.6 mg/dL
- TP [7]: 5.7 g/dL
- gamma-GTP [7]: 1.8 IU/L
- ALP [8]: 1046.8 IU/L
- ALT [8]: 47 IU/L
- AST [8]: 80.8 IU/L
- BUN [8]: 17.8 mg/dL
- CRE [8]: 0.2 mg/dL
- Ca [8]: 10.5 mg/dL
- Cl [8]: 104 meq/L
- DBIL [8]: 0 mg/dL
- GLC [8]: 196.6 mg/dL
- IP [8]: 7.1 mg/dL
- K [8]: 4.2 meq/L
- LDH [8]: 157.4 IU/L
- Na [8]: 143.4 meq/L
- PL [8]: 152 mg/dL
- RALB [8]: 3 g/dL
- TBIL [8]: 0.01 mg/dL
- TC [8]: 68.4 mg/dL
- TG [8]: 184 mg/dL
- TP [8]: 5.8 g/dL
- gamma-GTP [8]: 2.4 IU/L
